What was measured:
[1] = target: T1, PTH receptor (Rattus norvegicus, UniProt P25961); assay: Assay of PTH activity: c-AMP generated on reaction with rat renal cortex PTH receptor preparation, parallel line assay against standard bovine PTH(1-34); format: biochemical; conditions: for PTH Activity After Labelling with 125I: after labelling with iodine-125 (chloramine T); for PTH Activity After Labelling with 125I / PTH Activity: rat renal cortex PTH receptor, c-AMP generation; for PTH Activity: unlabelled sample, vs standard bovine PTH(1-34); for h-PTH activity, times stronger than known h-PTH(1-34) and [Nle8, Nle18]-h-PTH(1-34): compared with h-PTH(1-34) and [Nle8, Nle18]-h-PTH(1-34)
T1 construct: A surface membrane was removed, and the renal cortex carved out and ice-cooled; from tissue; host or cells: rat (SD, male) renal cortex, crude membrane fraction (2200 x g precipitate)
T1 sequence (P25961 27-591): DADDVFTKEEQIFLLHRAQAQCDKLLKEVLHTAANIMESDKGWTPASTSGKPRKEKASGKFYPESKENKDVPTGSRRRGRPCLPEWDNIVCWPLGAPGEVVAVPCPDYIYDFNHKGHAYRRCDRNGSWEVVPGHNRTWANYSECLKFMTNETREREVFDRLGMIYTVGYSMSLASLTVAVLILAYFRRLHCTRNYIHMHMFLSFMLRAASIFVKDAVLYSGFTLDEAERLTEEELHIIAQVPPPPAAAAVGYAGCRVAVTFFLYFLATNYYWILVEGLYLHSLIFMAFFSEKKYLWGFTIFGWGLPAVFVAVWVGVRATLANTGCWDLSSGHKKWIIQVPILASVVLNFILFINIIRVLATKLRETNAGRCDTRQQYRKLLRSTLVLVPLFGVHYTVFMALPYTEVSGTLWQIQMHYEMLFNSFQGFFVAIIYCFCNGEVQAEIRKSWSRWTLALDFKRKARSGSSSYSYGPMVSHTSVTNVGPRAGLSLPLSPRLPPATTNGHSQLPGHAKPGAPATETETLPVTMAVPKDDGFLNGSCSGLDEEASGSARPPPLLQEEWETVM
Description: (1) Preparation of PTH receptor:
Rats, strain SD, male, weight 200-250 g, were decollated to bleed, laparotomized and excised of kidneys. A surface membrane was removed, and the renal cortex carved out and ice-cooled. The following operations should be carried out at a temperature as low as possible (0°-4° C.).
The renal cortex was immersed in a solution (hereinafter designated as solution A) of 10 mM Tris-HCl buffer (pH 7.5) containing 0.25 M sucrose and lmM EDTA. Three times the volume of solution A (ml) suspending the renal cortex (wet weight) was added to a renal cortex in a glass tube with Tefron (trade name) pestle and homogenized.
A homogenate was centrifuged for 10 minutes at 150×g, and the supernatant solution was further centrifuged for 15 mins. at 2200×g. The supernatant solution was discarded and the upper emulsion part of precipitate was suspended in a solution A. The said emulsion was centrifuged for 15 mins. at 2200×g. The precipitate was again suspended and frozen at -70° C. in a bottle stored at -20° C.
(2) Reaction with PTH and PTH-receptor:
Specimen was dissolved in 100 mM Tris-HCl buffer (ph 7.5) containing ATP-Mg 2 mM, MgCl2 10 mM, KCl 60 mM, GTP 20 μM, isobutyl methyl xanthine 1 mM, creatine phosphate 8 mM and bovine serum albumin (BSA) 0.2% to prepare 2 μg/ml and 10 μg/ml solutions. Standard bovine PTH(1-34) solution was also prepared in the same manner.
The above solutions [2 μg/ml and 10 μg/ml specimen] and bovine PTH(1-34) (50 μl) were each divided among eight glass test tubes, and kept in ice water in order to prevent ATP […] and to prepare test solutions. A stock solution of PTH receptor stored at -20° C. was thawed to room temperature. Creatine kinase, previously dissolved in solution A, was added thereto to prepare creatine kinase at 0.1 mg/ml and PTH receptor at 1.4 mg/ml as protein by adding solution A while keeping the solution in ice cooling. After the above test solutions were preincubated at 37° C. for several minutes, the PTH receptor-creatine kinase solution (each 50 μl) was added therein and incubated at 37° C. for 10 mins. 0.1 M acetate buffer (pH 4.0, 100 μl) was added, the mixture immediately placed in ice-water, and the tube heated in boiling water for one minute to stop the reaction.
(3) Assay of generated c-AMP:
Distilled water was added to the above reaction-stopped solution to 10-30 times dilution, and deproteinized by centrifugation for 15 mins. at 2000×g. An amount of c-AMP in a supernatant solution was assayed by RIA-kit (YASAMA SHOYU CO.)
(4) Determination of PTH activity:
The measured values of c-AMP hereinabove were converted to a unit of pM (pico mole)/mg PTH receptor-protein/minute as a designation of measured value. The measured value of the specimen was compared to the standard substance according to a parallel assay line two by two.

[2] = cited from earlier work; for PTH / hormonal activity compared with natural h-PTH: prior art, Jap. Pat. Unexam. Publ. No. 55-113753
[3] = system: PTH receptors; assay: Affinity for PTH receptors (statement, no method given); format: binding; conditions: in words

Substance | PTH Activity After Labelling with 125I [1] | PTH Activity [1] | other results
h-PTH: sample of the activity table; human parathyroid hormone, probably the h-PTH(1-34) fragment labelled in b29 | > 100 U/mg | 3000 U/mg | 
[Nle^8, Nle^18, Tyr^34 ]-h-PTH(1-34) | 2480 U/mg | 2930 U/mg | PTH / hormonal activity compared with natural h-PTH [2]: only approximately equal to that of natural h-PTH(1-34)
[Nle^8, Nle^18 ]-h-PTH(1-34) |  |  | PTH / hormonal activity compared with natural h-PTH [2]: approximately equal to but no more than that of natural h-PTH
[Nle^8, Nle^18, Phe^34 ]-h-PTH(1-34)NH2 |  | 5000 U/mg | h-PTH activity, times stronger than known h-PTH(1-34) and [Nle8, Nle18]-h-PTH(1-34) [1]: 1.5-2 times; affinity for PTH receptors compared with known h-PTH(1-34) and [Nle8, Nle18]-h-PTH(1-34) [3]: stronger affinity
h-PTH(1-34) (SVSEIQLMHNLGKHLNSMERVEWLRKKLQDVHNF; Parathyroid hormone; UniProt P01270 32-65, looked up, fragment) [34-amino acid N-terminal fragment of human parathyroid hormone] |  |  | hormonal activity when labelled with iodine-125 ([2]; methionine at position-8 and -18 is oxidized): loses hormonal activity

Further lines, with some results ahead:

PTH Activity After Labelling with 125I [1] | PTH Activity [1] | Substance | other results
> 150 U/mg | 5100 U/mg | h-PTH(1-34)NH2 | 
5000 U/mg | 5030 U/mg | [Nle^8, Nle^18, Tyr^34 ]-h-PTH(1-34)NH2 | PTH activity after labelling (in words) ([1]; after labelling with iodine-125): retains its PTH activity after labelling; h-PTH activity, times stronger than known h-PTH(1-34) and [Nle8, Nle18]-h-PTH(1-34) [1]: 1.5-2 times; biological activity in long term storage ([1]; labelled peptide, long term storage): retains its biological activity in long term storage; affinity for PTH receptors compared with known h-PTH(1-34) and [Nle8, Nle18]-h-PTH(1-34) [3]: stronger affinity

Reference: patent US4656250A, “[Nle^8, Nle^18, Tyr^34 or Phe^34 ]-h-PTH peptide derivatives” (Toyo Jozo Kabushiki Kaisha, priority 1983, dated 1987)
